# Experimental data published in US20060178387A1, “Combined treatment with capecitabine and an epidermal growth factor receptor kinase inhibitor” (priority 2005, published 2006).
# Legend:
# [1] = tested on: KPL-4 (human inflammatory breast cancer) cells; test: Tumor-growth inhibition in vivo, KPL-4 orthotopic xenograft in BALB/c nu/nu mice
# From the text: (§1) Suspensions of LoVo (5×10^6 cells/mouse), HT-29 (5 x 10^6 cells/mouse) and A431 (8×10^6 cells/mouse) cells were inoculated s.c. into the right flank of the mice. A piece of MAXF401 was transplanted s.c. into the right flank of female mice. A suspension of KPL-4 cells (1×10^7 cells/mouse) was orthotopically transplanted into the second mammary fat pad of female mice. Several weeks after tumor inoculation, mice were selected and randomized into control and treatment groups. Experiments were started when tumor volumes reached approximately 0.1-0.3 cm^3. […] The tumor volumes were estimated using the equation V=ab^2/2, where a and b are tumor length and width, respectively. Gastrointestinal (GI) toxicity was estimated by observing the feces and by detecting fecal occult blood using a test kit (Shionogi Pharma Co., Osaka, Japan). Peripheral blood leukocyte counts were performed to evaluate bone marrow toxicity.
# [2] = tested on: LoVo (human colon cancer) cells; test: Tumor-growth inhibition in vivo, LoVo xenograft in BALB/c nu/nu mice; conditions: for tumor-growth inhibition: LoVo; for tumor inhibition rate: day 15, after 14 days' treatment
# From the text: as §1
# [3] = tested on: HT-29 (human colon cancer) cells; test: Tumor-growth inhibition in vivo, HT-29 xenograft in BALB/c nu/nu mice; conditions: erlotinib 100 mg/kg/day orally once daily for two weeks, day 15
# From the text: as §1
# [4] = tested on: MAXF401 (human breast cancer) cells; test: Tumor-growth inhibition in vivo, MAXF401 xenograft in BALB/c nu/nu mice; conditions: erlotinib 100 mg/kg/day orally once daily for two weeks, day 15
# From the text: as §1
# [5] = tested on: A-431 (human vulval epidermal cancer) cells; test: Tumor-growth inhibition in vivo, A-431 xenograft in BALB/c nu/nu mice; conditions: erlotinib 100 mg/kg/day (80% of MTD) orally once daily for 14 days
# From the text: as §1
# [6] = Tolerability (body weight, deaths, MTD) in tumor-bearing mice; assay type: in vivo, BALB/c nu/nu mice; conditions: for lethality: erlotinib 250 mg/kg/day; for toxic deaths: erlotinib 50-125 mg/kg/day for 2 weeks
# From the text: Male and female, 4-6-weeks old BALB/c nu/nu mice were obtained from Nippon Clea (Tokyo, Japan). All animals were allowed to acclimatize and recover from shipping-related stress for 1 week prior to the study. The health of the mice was monitored daily by observation.
# [7] = erlotinib 100 mg/kg/day (80% of MTD) orally once daily for 14 days, day 15
# [8] = erlotinib 100 mg/kg/day (80% of MTD) orally once daily for 14 days, day 15, listed as erlotinib
smiles,measurement,setting,value
"CCCCCOC(=O)Nc1nc(=O)n([C@@H]2O[C@H](C)[C@@H](O)[C@H]2O)cc1F [Capecitabine, capecitabine]",tumor-growth inhibition,"[1]; capecitabine 90 mg/kg (67% of MTD for this model) orally once daily for 14 days, day 15",36%
same,tumor-growth inhibition,"[2]; capecitabine at the MTD, 539 mg/kg",56%
"C#Cc1cccc(Nc2ncnc3cc(OCCOC)c(OCCOC)cc23)c1 [Erlotinib, [6,7-bis(2-methoxyethoxy)-4-quinazolin-4-yl]-(3-ethynylphenyl)amine]",tumor-growth inhibition,[3],46%
same,tumor-growth inhibition,[1]; [7],71%
same,tumor-growth inhibition,[1]; [8],71%
same,inhibition of tumor growth,[1]; single-agent erlotinib 75 mg/kg (data not shown),45%
same,tumor-growth inhibition,[4],20%
same,tumor-growth inhibition,[5]; day 15,85%
same,tumor-growth inhibition,"[5]; day 15, listed as erlotinib",85%
same,MTD at 2 weeks,"[6]; BALB/c nu/nu, mouse, in vivo, oral, read-out: maximum tolerated dose (MTD)",125 mg/kg/day
same,lethality,[6]; mice bearing A431 tumors (data not shown),lethal
same,lethality,[6]; mice bearing LoVo tumors (data not shown),lethal
same,toxic deaths,[6]; mice bearing LoVo tumors,no deaths recorded
same,toxic deaths,"[6]; mice bearing LoVo tumors, listed as erlotinib",No toxic deaths were observed
same,mean body weight maintained,"[6]; mice bearing LoVo tumors, erlotinib 50-125 mg/kg/day, all groups",≥ 80%
same,antitumor activity,"[2]; LoVo dose-response study, erlotinib 50 mg/kg orally once daily for 2 weeks",did not show significant antitumor activity
same,tumor inhibition rate,"[2]; LoVo dose-response study, erlotinib 100 mg/kg orally once daily",62%
same,tumor inhibition rate,"[2]; LoVo dose-response study, erlotinib 125 mg/kg orally once daily",85%
same,tumor-growth inhibition,[2]; [7],74%
same,tumor-growth inhibition,[2]; [8],74%
